Our source for the IC50 values is patent US11186592B2, “Thiazolopyridine derivatives as adenosine receptor antagonists” (MERCK PATENT GMBH, priority 2017, dated 2021).

Common to all, as to type: cell-based
For one experiment, the target named is T1, human A2A receptor (Homo sapiens, UniProt P29274).
T1 construct: expressed in transfected cells; host or cells: HEK293
In words: cAMP (HTRF) functional assay, recombinant HEK293 cells expressing human A2A receptor, agonist NECA. The method, then: (§1) The functional activities of human A2A, A2B, A1 and A3 receptors were determined by quantification of cAMP, being the second messenger for adenosine receptors.
(§2) Cells were seeded into 384-well plates, forskolin, test compounds and agonists (CPA for A1- and IB-MECA for A3-receptor) were added. After 30 min incubation, HTRF reagents (cAMP dynamic 2, Cis Bio) were added and the cellular cAMP levels were determined using the ENVISION (Perkin Elmer) plate reader. Obtained raw data were normalized against the inhibitor control and the neural control (DMSO) and the normalized data were fitted using GeneData software.
In general terms: Time-resolved FRET reads energy transfer from a long-lived donor to a nearby acceptor.

The target of the next experiment is T2, human A2B receptor (Homo sapiens, UniProt P29275).
T2 construct: expressed in transfected cells; host or cells: HEK293
T2 sequence (P29275 1-332): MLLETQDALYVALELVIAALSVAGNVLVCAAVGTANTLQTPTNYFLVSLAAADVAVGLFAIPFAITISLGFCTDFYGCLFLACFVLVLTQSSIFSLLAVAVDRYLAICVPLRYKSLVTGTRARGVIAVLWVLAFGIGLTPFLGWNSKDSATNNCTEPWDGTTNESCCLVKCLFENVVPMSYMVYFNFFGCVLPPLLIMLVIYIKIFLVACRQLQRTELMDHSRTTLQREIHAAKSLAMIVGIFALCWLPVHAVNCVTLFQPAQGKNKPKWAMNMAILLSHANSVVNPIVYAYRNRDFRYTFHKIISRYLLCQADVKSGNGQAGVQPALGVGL
The experiment can be described thus: cAMP (HTRF) functional assay, recombinant HEK293 cells expressing human A2B receptor, agonist NECA. The method, then:
as §1, §2

For a further experiment, the target named is T3, human A3 receptor (Homo sapiens, UniProt P0DMS8).
T3 construct: expressed in transfected cells; host or cells: CHO
T3 sequence (P0DMS8 1-318): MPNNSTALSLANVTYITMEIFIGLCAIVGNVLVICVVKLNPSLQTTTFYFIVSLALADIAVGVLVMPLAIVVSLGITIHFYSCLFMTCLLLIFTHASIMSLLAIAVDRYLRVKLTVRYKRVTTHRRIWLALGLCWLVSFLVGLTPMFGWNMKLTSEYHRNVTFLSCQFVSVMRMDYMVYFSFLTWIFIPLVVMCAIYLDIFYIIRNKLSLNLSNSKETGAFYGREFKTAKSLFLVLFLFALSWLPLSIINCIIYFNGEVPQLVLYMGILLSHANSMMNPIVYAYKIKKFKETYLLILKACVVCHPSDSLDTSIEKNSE
In words: cAMP (HTRF) functional assay, recombinant CHO cells expressing human A3 receptor, forskolin + agonist IB-MECA. The method, then: as §1
For human A1 and A3 receptors, recombinant CHO cells, expressing either A1 or A3-receptor, were used. As both receptors couple to Gi proteins, the assay protocol was adapted:
as §2

T1 sequence (P29274 whole entry): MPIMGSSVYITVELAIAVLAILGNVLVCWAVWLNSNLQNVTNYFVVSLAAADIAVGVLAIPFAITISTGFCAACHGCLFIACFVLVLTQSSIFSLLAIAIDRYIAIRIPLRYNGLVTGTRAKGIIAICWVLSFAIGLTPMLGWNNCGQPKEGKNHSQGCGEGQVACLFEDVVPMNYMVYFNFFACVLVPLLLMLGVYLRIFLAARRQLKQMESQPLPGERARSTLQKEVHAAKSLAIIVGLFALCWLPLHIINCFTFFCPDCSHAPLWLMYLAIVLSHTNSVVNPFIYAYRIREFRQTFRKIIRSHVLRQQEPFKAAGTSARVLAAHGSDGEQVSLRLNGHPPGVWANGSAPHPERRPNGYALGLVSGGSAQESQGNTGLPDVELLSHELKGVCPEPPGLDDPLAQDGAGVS

In the case of `COc1ncc(-c2cnn(C)c2)c2sc(NC(=O)c3cnc(C)s3)nc12` [compound 131, 2-Methyl-thiazole-5-carboxylic acid [4-methoxy-7-(1-methyl-1H-pyrazol-4-yl)-thiazolo[4,5-c]pyridin-2-yl]-amide], the IC50 (usually the concentration that inhibits the measured activity by half) on human A2A receptor is less than 10 nM; on human A2B receptor, less than 100 nM; at human A3 receptor it was more than 1000 nM.
The corresponding values for `COc1nc(F)c(N2CCOCC2)c2sc(NC(=O)c3cnn(C)c3)nc12` [compound 165, 1-Methyl-1H-pyrazole-4-carboxylic acid (6-fluoro-4-methoxy-7-morpholin-4-yl-thiazolo[4,5-c]pyridin-2-yl)-amide] are less than 10 nM, less than 10 nM and less than 1000 nM.
In the same order, the values of `COc1nc(Br)c(N2CCOCC2)c2sc(NC(=O)c3cnn(C)c3)nc12` [compound 178, 1-Methyl-1H-pyrazole-4-carboxylic acid (6-bromo-4-methoxy-7-morpholin-4-yl-thiazolo[4,5-c]pyridin-2-yl)-amide] are less than 10 nM, less than 100 nM and less than 1000 nM.
On to `COc1ncc(-c2ccccc2)c2sc(NC(=O)c3cnn(C)c3)nc12` [compound 188, 1-Methyl-1H-pyrazole-4-carboxylic acid (4-methoxy-7-phenyl-thiazolo[4,5-c]pyridin-2-yl)-amide], for which the values for the IC50 at human A2A receptor, at human A2B receptor and at human A3 receptor were less than 10 nM, less than 10 nM and less than 1000 nM, respectively.
With `COc1nc(C#N)c(N2CCOCC2)c2sc(NC(=O)c3cnn(C)c3)nc12` [compound 217, 1-Methyl-1H-pyrazole-4-carboxylic acid (6-cyano-4-methoxy-7-morpholin-4-yl-thiazolo[4,5-c]pyridin-2-yl)-amide], the IC50 at human A2A receptor was less than 10 nM; on human A2B receptor it was less than 100 nM; at human A3 receptor, less than 1000 nM.
In the same order, the values of `COc1ncc(-c2cccnc2)c2sc(NC(=O)c3ccc(C(=O)N(C)C)cc3)nc12` [compound 218, N-(4-Methoxy-7-pyridin-3-yl-thiazolo[4,5-c]pyridin-2-yl)-N′,N′-dimethyl-terephthalamide] are less than 10 nM, less than 100 nM and more than 1000 nM.
In the same order, the values of `COc1nc(Cl)c(N2CCOCC2)c2sc(NC(=O)c3cnn(C)c3)nc12` [compound 221, 1-Methyl-1H-pyrazole-4-carboxylic acid (6-chloro-4-methoxy-7-morpholin-4-yl-thiazolo[4,5-c]pyridin-2-yl)-amide] are less than 10 nM, less than 100 nM and less than 1000 nM.
The corresponding values for `COc1nc(C)c(-c2ccccc2)c2sc(NC(=O)N3CCC4(CCOCC4)C3)nc12` [compound 223, 8-Oxa-2-aza-spiro[4.5]decane-2-carboxylic acid (4-methoxy-6-methyl-7-phenyl-thiazolo[4,5-c]pyridin-2-yl)-amide] are less than 10 nM, less than 100 nM and more than 1000 nM.
Regarding `COCCOc1cccc(-c2cnc(OC)c3nc(NC(=O)c4ccc(C(=O)N(C)C)cc4)sc23)c1` [compound 224, N-{4-Methoxy-7-[3-(2-methoxy-ethoxy)-phenyl]-thiazolo[4,5-c]pyridin-2-yl}-N′,N′-dimethyl-terephthalamide], the IC50 was less than 10 nM at human A2A receptor, less than 100 nM on human A2B receptor and less than 1000 nM at human A3 receptor.
In the same order, the values of `COCCOc1cccc(-c2cnc(OC)c3nc(NC(=O)N4CCC5(CCOCC5)C4)sc23)c1` [compound 225, 8-Oxa-2-aza-spiro[4.5]decane-2-carboxylic acid (4-methoxy-7-[3-(2-methoxy-ethoxy)-phenyl]-thiazolo[4,5-c]pyridin-2-yl}-amide] are less than 10 nM, less than 100 nM and more than 1000 nM.
